Columns and labels:
[1] = Bioavailability study of 25/250 mg orally disintegrating tablets in healthy adult volunteers, fasting; assay type: in vivo; settings: human, oral, Mean ± SD, 25/250 mg ODT, 36 healthy adult volunteers, plasma; for AUC(0-inf): read-out: AUCinf_obs
[2] = combination of carbidopa and levodopa, no entacapone; cited from earlier work

Cmax [1] [ng/mL] | Tmax [1] [h] | AUC(0-inf) [1] [ng·h/mL] | Structure (SMILES) | levodopa half-life without entacapone [2] [h]
1470 ± 567 | 1.7 ± 0.8 | 4480 ± 1580 | N[C@@H](Cc1ccc(O)c(O)c1)C(=O)O [Levodopa, (−)-L-α-amino-β-(3,4-dihydroxybenzene) propanoic acid monohydrate] | 1.3
98.5 ± 38.3 | 2.8 ± 1 | 560 ± 197 | C[C@@](Cc1ccc(O)c(O)c1)(NN)C(=O)O [Carbidopa] | 

Reference: patent publication US20050147670A1, “Oral disintegrating dosage forms” (IMPAX Laboratories Inc., priority 2002, published 2005)
